Numbered stars: 1 amine (or outer) side, 2 acyl side, 3 side chain; on linkers, the order of the positions; unused ones are H or OH. Bridge positions count the residues as written; N and C are the ends. Square brackets hold non-standard residues; d marks the D form. Peptide text beside a SMILES is read from it. Bip = N[C@@H](Cc1ccc(-c2ccccc2)cc1)C(=O)O; Phe(4-NH2) = Nc1ccc(C[C@H](N)C(=O)O)cc1; d(hPhe) = N[C@H](CCc1ccccc1)C(=O)O; Suc = O=C(CCC(=O)[*:2])[*:1]
What was measured:
[1] = biological target: T1, TNFα / TNFα receptor (TNFα R1/Fc) (Homo sapiens, UniProt P01375); test: Inhibition of binding of TNFα to the TNFα receptor (plate ELISA competition); settings: Table 2; read-out: Activity (IC50, inhibition of TNFα binding to TNFα R1/Fc)
T1 construct: purchased R&D Systems
T1 sequence (P01375 77-233 limits assumed, species assumed): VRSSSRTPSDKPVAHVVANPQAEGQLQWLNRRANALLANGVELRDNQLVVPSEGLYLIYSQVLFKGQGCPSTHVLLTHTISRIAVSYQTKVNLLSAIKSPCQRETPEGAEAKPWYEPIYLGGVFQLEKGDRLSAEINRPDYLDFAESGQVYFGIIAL
How it was run: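 Compound dilutions were preincubated 30 min at RT with 8.33 nM TNFα R1/Fc in PBST with 2% DMSO, then added to wells coated with 15 nM TNFα for 30 min. Bound receptor was detected with HRP anti-human Fc and TMB, read as A450.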

[2] = tested on: TNF-α (degradation of IkB in HeLa cells or A431 cells); test: Human cell-based assay: inhibition of TNF-α induced degradation of IkB; settings: HeLa or A431 cells

- IC50 [1]: < 10 µM
Structure (SMILES): O=C1CCC(=O)N[C@H](CCc2ccccc2)C(=O)N[C@@H](Cc2ccc(-c3ccccc3)cc2)C(=O)N[C@H](Cc2ccccc2)C(=O)N[C@H](C(=O)N[C@@H](Cc2ccccc2)C(=O)O)Cc2ccc(cc2)N1 [Compound 202] ([d(hPhe)][Bip][dF][Phe(4-NH2)]F-OH; linker N-4 via Suc)
- inhibition at 5 µM ([2]; 5 μM compound, read-out: Inhibition at Various Compound Concentrations, 5 μM): 10 to 50%
- inhibition at 10 µM ([2]; 10 μM compound, read-out: Inhibition at Various Compound Concentrations, 10 μM): 50 to 80%

From patent US8338565B2, “Macrocyclic compounds for inhibition of tumor necrosis factor alpha” (Ensemble Therapeutics Corporation, priority 2008, dated 2012)
